# Data reported in PMC8286840, “Identifying SARS-CoV-2 antiviral compounds by screening for small molecule inhibitors of Nsp3 papain-like protease” (Biochemical Journal, 2021).
# Values joined by “and” are separate entries in the source; they are usually repeats but may differ in a detail not shown here. Equal entries are not always repeated. “Also recorded” adds a separate entry of the source. Where two headings read alike, the source gives them in different places.
# Assays:
# [1] = target: T1, SARS-CoV-2 PLpro (nsp3 1564–1878) (Severe acute respiratory syndrome coronavirus 2, UniProt P0DTD1); experiment: biochemical; design: FRET-quenched peptide (Pro3) cleavage by PLpro, 10 min pre-incubation, slope over 20 min, normalised to no-compound control; details: low concentration screen, read-out: % of control remaining
# [2] = target: T2, SARS-CoV-2 PLpro (Severe acute respiratory syndrome coronavirus 2, UniProt P0DTD1); assay type: biochemical; details: 3.75 µM and 10 µM compound, 0.5 µM enzyme, 5 h RT
# [3] = target: T1, SARS-CoV-2 PLpro (nsp3 1564–1878); experiment: biochemical; design: FRET-quenched peptide (Pro3) cleavage by PLpro, 10 min pre-incubation, slope over 20 min, normalised to no-compound control; details: high concentration screen, read-out: % of control remaining
# [4] = target: T1, SARS-CoV-2 PLpro (nsp3 1564–1878); experiment: biochemical; assay type: biochemical; details: for IC50: fluorescent-based assay; for inhibition at 1.25 µM: read-out: Inhibition (%) 1.25 µM; for inhibition at 3.75 µM: read-out: Inhibition (%) 3.75 µM
# [5] = system: SARS-CoV-2; experiment: microbe, parasite or virus in culture; assay type: cell-based
# [6] = system: PLpro from SARS-CoV-1; details: cited from earlier work
# [7] = target: 3CLpro (nsp5) (Severe acute respiratory syndrome coronavirus 2, UniProt P0DTD1); assay type: biochemical, SARS-CoV-2
# [8] = target: T1, SARS-CoV-2 PLpro (nsp3 1564–1878); experiment: biochemical; details: read-out: % of control remaining
# [9] = target: T1, SARS-CoV-2 PLpro (nsp3 1564–1878); experiment: biochemical; details: read-out: % of control remaining; remark: listed apart in the source
# [10] = system: SARS-CoV-1/-2 PLpro; details: non-covalent inhibitor; cited from earlier work
# [11] = system: VERO E6 cells
# [12] = target: T2, SARS-CoV-2 PLpro; assay type: biochemical; details: 10 µM inhibitor, 50 nM PLpro, 1 µM substrate, 1 h 25°C
# [13] = target: T2, SARS-CoV-2 PLpro; assay type: biochemical; details: 10 µM inhibitor, 50 nM PLpro, 1 µM substrate, 1 h 25°C; remark: listed apart in the source
# [14] = system: VERO E6 cells; experiment: Cytotoxicity in the cell culture-based assay
# [15] = screen, 1.25 µM compound, 1.75 µM enzyme, 20 µM substrate
# [16] = screen, 1.25 µM compound, number after the slash is the control without compound
# [17] = screen, 3.75 µM compound, 1.75 µM enzyme, 20 µM substrate
# [18] = screen, 3.75 µM compound, number after the slash is the control without compound
# [19] = Severe acute respiratory syndrome coronavirus 2, Vero C1008, VERO E6 cells, compound alone, read-out: EC50 viral proliferation
# [20] = Severe acute respiratory syndrome coronavirus 2, Vero C1008, VERO E6 cells, compound plus 0.5 µM remdesivir, read-out: EC50 viral proliferation with remdesivir
# [21] = VERO E6 cells, compound alone, read-out: EC50 viral proliferation
# [22] = screen, normalized to control without compound, Table S1
smiles,measurement,setting,value
O=C(O)c1cccc(O)c1O [Pyrocatechuic acid],remaining activity at 1.25 µM,[1]; Well no.=6595,103%
same,Inhibition of PLpro cleavage of the substrate (gel-based),[2],did not inhibit
same,remaining activity at 3.75 µM,[3]; Well no.=6595,51%
same,Z score,"[4]; screen hits, Table 1",−6.846
same,Inhibition (%) 1.25 µM,[4]; [15],0%
same,slope value (of slope value/control) 1.25 µM,[4]; [16],453
same,Inhibition (%) 3.75 µM,[4]; [17],49%
same,slope value (of slope value/control) 3.75 µM,[4]; [18],226
"C[C@H]1COC2=C1C(=O)C(=O)c1c2ccc2c1CCCC2(C)C [Cryptotanshinone, cryptotanshinone]",EC50,[5]; [19],223 µM
same,Concentration below which viral growth was not inhibited,[5]; VERO E6 cells,≥ 200 µM
same,Inhibition of SARS-CoV-1 PLpro,[6],better inhibitors of this enzyme than dihydrotanshinone I
same,remaining activity at 1.25 µM,[1]; Well no.=3557,100%
same,Inhibition of 3CLpro activity (gel-based),[7]; 3 and 10 µM compound,did not inhibit
same,Inhibition of PLpro cleavage of the substrate (gel-based),[2],"show inhibition; also recorded: inhibited cleavage, but only at the higher concentration"
same,remaining activity at 3.75 µM,[3]; Well no.=3557,103%
C=C1C(=O)O[C@@H]2[C@H]3O[C@]3(C)CC/C=C(\C)CC[C@@H]12 [Parthenolide],remaining activity at 1.25 µM,[8],96.7%
same,remaining activity at 3.75 µM,[9],97.3%
Cc1ccc(N)cc1C(=O)N[C@H](C)c1cccc2ccccc12 [GRL-0617],Effectiveness against SARS-CoV-1/-2 PLpro,[10],effective
same,Cytotoxicity,[11],some cell toxicity at higher concentrations
same,EC50,[5]; read-out: EC50 viral proliferation,32.6 µM
same,EC50,[5]; read-out: EC50 viral proliferation with remdesivir,32.2 µM
Cc1cccc2c3c(ccc12)C1=C(C(=O)C3=O)[C@@H](C)CO1 [Dihydrotanshinone I],EC50,[5]; [19],8 µM
same,EC50,[5]; [20],5.35 µM
same,EC50,[5]; [21],8.15 µM
same,Inhibition of SARS-CoV-1 PLpro,[6],inhibit
same,Inhibition of 3CLpro activity (gel-based),[7]; 3 and 10 µM compound,did not inhibit
same,Inhibition of K48-linked Ub3 cleavage (DUB activity),[12],potent inhibition; also recorded: inhibited strongly
same,Inhibition of PLpro cleavage of the substrate (gel-based),[2],show inhibition; also recorded: strongly inhibited
same,Inhibition of pro-ISG15 cleavage (deISGylating activity),[13],potent inhibition
same,Cytotoxicity,[14],did not exhibit much cytotoxicity
same,IC50,[4],0.586 µM
same,IC50,[4]; listed as dihydrotanshione I,0.59 µM
same,Z score,"[4]; screen hits, Table 1",−4.52
same,inhibition at 1.25 µM,[4]; [15],0%
same,slope value (of slope value/control) 1.25 µM,[4]; [16],449
same,inhibition at 3.75 µM,[4]; [17],33%
same,slope value (of slope value/control) 3.75 µM,[4]; [18],329
CC1(C)CCC2=C(O1)c1ccccc1C(=O)C2=O [beta-Lapachone],EC50,[5]; [19],4.39 µM
same,Inhibition of 3CLpro activity (gel-based),[7],did not inhibit
same,Inhibition of K48-linked Ub3 cleavage (DUB activity),[12],potent inhibition; also recorded: inhibited strongly
same,Inhibition of PLpro cleavage of the substrate (gel-based),[2],show inhibition; also recorded: strongly inhibited
same,Inhibition of pro-ISG15 cleavage (deISGylating activity),[13],potent inhibition
same,Cytotoxicity,[14],cytotoxic in the low micromolar range
same,IC50,[4],0.61 µM
same,Z score,"[4]; screen hits, Table 1",−4.66
same,inhibition at 1.25 µM,[4]; [15],7%
same,slope value (of slope value/control) 1.25 µM,[4]; [16],420
same,inhibition at 3.75 µM,[4]; [17],34%
same,slope value (of slope value/control) 3.75 µM,[4]; [18],322
O=C1c2ccccc2-c2nc3nnnn3nc21 [PDK1/Akt/Flt Dual Pathway Inhibitor],remaining activity at 1.25 µM,[1]; Well no.=2319,11.1%
same,Inhibition of PLpro cleavage of the substrate (gel-based),[2],show inhibition; also recorded: strongly inhibited
same,remaining activity at 3.75 µM,[3]; Well no.=2319,-2.62%
same,IC50,[4],0.265 µM
same,IC50,[4]; listed as PDK/Akt/Flt dual pathway inhibitor,0.26 µM
same,Z score,"[4]; screen hits, Table 1",−14.53
same,Inhibition (%) 1.25 µM,[4]; [15],89%
same,slope value (of slope value/control) 1.25 µM,[4]; [16],50
same,Inhibition (%) 3.75 µM,[4]; [17],100%
same,slope value (of slope value/control) 3.75 µM,[4]; [18],0
same,Z score,"[4]; screen, Table S1",-14.531
same,Normalized activity High (3.75 µM),[4]; [22],-0.02621
same,Normalized activity Low (1.25µM),[4]; [22],0.111
Cc1ccc(NC2=CC(=O)c3sc(C)nc3C2=O)cc1 [Cdk4 Inhibitor III],Cytotoxicity,[11],cytotoxic in the low micromolar range
same,EC50,[5]; [21],3.4 µM
same,remaining activity at 1.25 µM,[1]; Well no.=2408,81.1%
same,Inhibition of 3CLpro activity (gel-based),[7]; 3 and 10 µM compound,did not inhibit
same,Inhibition of PLpro cleavage of the substrate (gel-based),[2],show inhibition; also recorded: strongly inhibited
same,remaining activity at 3.75 µM,[3]; Well no.=2408,61.4%
same,IC50,[4],0.39 µM and 0.393 µM
same,Z score,"[4]; screen hits, Table 1",−5.34
same,Inhibition (%) 1.25 µM,[4]; [15],19%
same,slope value (of slope value/control) 1.25 µM,[4]; [16],367
same,Inhibition (%) 3.75 µM,[4]; [17],39%
same,slope value (of slope value/control) 3.75 µM,[4]; [18],302
"Cc1cc2nc3c(=O)[nH]c(=O)nc-3n(C)c2cc1C=O [Ro 08-2750, 2,3,4,10-Tetrahydro-7,10-dimethyl-2,4-dioxobenzo[g]pteridine-8-carboxaldehyde]",Cytotoxicity,[11],some cell toxicity at higher concentrations
same,EC50,[5]; [19],20 µM
same,EC50,[5]; [20],22.7 µM
same,Inhibition of 3CLpro activity (gel-based),[7]; 3 and 10 µM compound,did not inhibit
same,Inhibition of K48-linked Ub3 cleavage (DUB activity),[12],moderate inhibition; also recorded: moderately
same,Inhibition of PLpro cleavage of the substrate (gel-based),[2],show inhibition; also recorded: strongly inhibited
same,Inhibition of pro-ISG15 cleavage (deISGylating activity),[13],moderate inhibition
same,IC50,[4],0.53 µM and 0.531 µM
same,Z score,"[4]; screen hits, Table 1",−5.79
same,inhibition at 1.25 µM,[4]; [15],19%
same,slope value (of slope value/control) 1.25 µM,[4]; [16],366
same,inhibition at 3.75 µM,[4]; [17],42%
same,slope value (of slope value/control) 3.75 µM,[4]; [18],287
"C[N+]1(C)CCc2cc3c(cc2[C@H]1[C@@H]1OC(=O)c2c1ccc1c2OCO1)OCO3 [(-)-Bicuculline methbromide, 1(S), 9(R)]",remaining activity at 1.25 µM,[8],100%
same,remaining activity at 3.75 µM,[9],103%
"Cc1coc2c1C(=O)C(=O)c1c-2ccc2c1CCCC2(C)C [Tanshinone IIA, tanshinone IIA]",EC50,[5]; [19],1150 µM
same,Inhibition of SARS-CoV-1 PLpro,[6],better inhibitors of this enzyme than dihydrotanshinone I
same,remaining activity at 1.25 µM,[1]; Well no.=3178,105%
same,remaining activity at 1.25 µM,[1]; Well no.=4084,99.4%
same,Inhibition of 3CLpro activity (gel-based),[7],did not inhibit
same,Inhibition of PLpro cleavage of the substrate (gel-based),[2],"inhibited cleavage, but only at the higher concentration"
same,Inhibition of PLpro cleavage of the substrate (gel-based),[2]; listed as tanshinone IIA,show inhibition
same,remaining activity at 3.75 µM,[3]; Well no.=3178,105%
same,remaining activity at 3.75 µM,[3]; Well no.=4084,89.9%
CC(C)=CC[C@@H](O)C1=CC(=O)c2c(O)ccc(O)c2C1=O [shikonin],remaining activity at 1.25 µM,[1]; Well no.=3172,86.4%
same,remaining activity at 1.25 µM,[1]; Well no.=6398,96.8%
same,Inhibition of K48-linked Ub3 cleavage (DUB activity),[12],did not inhibit and not
same,Inhibition of pro-ISG15 cleavage (deISGylating activity),[13],did not inhibit
same,remaining activity at 3.75 µM,[3]; Well no.=3172,82.5%
same,remaining activity at 3.75 µM,[3]; Well no.=6398,92.6%
C[C@H](CCC(=O)O)[C@H]1CC[C@H]2[C@@H]3[C@@H](O)C[C@@H]4C[C@H](O)CC[C@]4(C)[C@H]3CC[C@]12C [Ursodiol],remaining activity at 1.25 µM,[1]; Well no.=8332,89.1%
same,Inhibition of PLpro cleavage of the substrate (gel-based),[2],did not inhibit
same,remaining activity at 3.75 µM,[3]; Well no.=8332,90.6%
same,slope value (of slope value/control) 1.25 µM,[4],26 (324/440)
same,slope value (of slope value/control) 3.75 µM,[4],55 (187/420)
same,inhibition at 1.25 µM,[4],26%
same,inhibition at 3.75 µM,[4],55%
same,Z score,"[4]; screen hits, Table 1",−7.78
